Measured values reported in patent publication US10174013B2, “Benzimidazole derivatives as kinase inhibitors” (SELVITA S.A., priority 2012, dated 2019).
Read-outs that look alike come from different tables or passages of the source.

Assays:
MV4-11 cells = test: Growth inhibition, MTS assay, MV4-11; type: cell-based, Human; conditions: MTS cell viability, read-out: MV4-11 ED50
Text: (§1) The following cell lines, were obtained and used in tests as outlined below: • Human myelomonocytic, biphenotypic leukemia MV4-11 cells (harboring a Flt3-ITD mutation); • Human Acute Myeloid Leukemia MOLM16 cells; • Human Acute Myeloid Leukemia MOLM13 cells (harboring a Flt3-ITD mutation); • Human Myeloid Leukemia KG-1 cells; • Human erythroleukemia HEL92 cells; • Human mantle cell lymphoma Jeko-1 cells; • Human hepatocellular carcinoma HepG2 cells; and • Human colon adenocarcinoma SW-480 cells.
(§2) The assays were carried out according to the following protocol, which is described as an example for the MV4-11 cells:
(§3) Ten thousand MV4-11 cells were inoculated into each well of a 96-well microplate (manufactured by Corning Corp.) using Iscove's MDM medium (culture medium) containing 10% fetal calf serum (FCS). The same day, a dimethyl sulfoxide (DMSO) solution of each test compound prepared in a concentration of 10 mmol/L was further diluted with DMSO to the desired concentrations (0.1, 0.5, 1, 2.5, 5 and 10 micromol/L), and the diluted solution was added to each well. The individual wells were further cultured in 5% carbon dioxide at 37° C. for 72 hours. […] Briefly, 10 μl MTS (3-(4,5-Dimethyl-2-thiazolyl)-5-(carboxymethoxyphenyl)-2-(4-sulfophenyl)-2H-tetrazolium was added to each well, and culturing was performed in 5% carbon dioxide at 37° C. for 2 hours. After this incubation and using a microplate spectrophotometer (Synergy 2 multi-mode microplate reader (BioTek)), the absorbance of each well was measured at 490 nm. The value for cells not incubated with a test compound was designated as 100%. By comparing these values with the absorbance difference obtained at the well in which each test compound was added, the cell viability (% viability) after treatment with the test compound was calculated.

HepG2 cells = test: Growth inhibition, MTS assay, HepG2; type: cell-based, Human; conditions: MTS cell viability, read-out: HepG2 ED50
Text: as §1, §2, §3

DYRK1 = DYRK1 (Homo sapiens (Human), UniProt Q13627); test: ADP-Glo Kinase Assay, DYRK1; type: biochemical; conditions: 1 μM compound; for inhibition at 1 µM: read-out: DYRK1A % INH (1 μM)
Experimental: (§4) Compounds of the present invention were tested for their inhibitory activity against Pim-1, Pim-2, Pim-3, Flt3 wt, Flt3 ITD, CDK2/E and DYRK1. The testing of the compounds was carried out using the ADP-Glo™ Kinase Assay from Promega Corporation (Madison, Wis., USA).
(§5) The ADP-Glo™ Kinase Assay is a luminescent ADP detection assay to measure kinase activity by quantifying the amount of ADP produced during a kinase reaction. The kinase assay is performed in kinase assay buffer (5 mM MOPS, pH 7.5, 5 mM MgCl2, 0.4 mM EDTA, 1.5 mM DTT). Test samples initially dissolved in DMSO at 10 mM were diluted with the assay buffer to 1000 nM. A 30 μL volume/well of a mixture of substrates containing ATP (final ATP concentration in each kinase assay was equal to its apparent ATP Km).
(§6) The assay was performed in two steps: first, after the kinase reaction, an equal volume of ADP-Glo™ Reagent was added to terminate the kinase reaction and deplete the remaining ATP. Second, the Kinase Detection Reagent was added to simultaneously convert ADP to ATP and allowed the newly synthesized ATP to be measured using a luciferase/luciferin reaction. The luminescent signal generated was proportional to the ADP concentration produced and was correlated with kinase activity. A microplate spectrophotometer (Synergy 2 multi-mode microplate reader [BioTek]) was used for detecting the luminescence. The data was normalized and the percent of inhibition was obtained according to the following equation: […]

Pim-1 = Pim-1 (Homo sapiens (Human), UniProt P11309); test: ADP-Glo Kinase Assay, Pim-1; type: biochemical; conditions: 1 μM compound; for inhibition at 1 µM: read-out: Pim-1 % INH (1 μM)
Chain of Pim-1 (P11309 whole entry): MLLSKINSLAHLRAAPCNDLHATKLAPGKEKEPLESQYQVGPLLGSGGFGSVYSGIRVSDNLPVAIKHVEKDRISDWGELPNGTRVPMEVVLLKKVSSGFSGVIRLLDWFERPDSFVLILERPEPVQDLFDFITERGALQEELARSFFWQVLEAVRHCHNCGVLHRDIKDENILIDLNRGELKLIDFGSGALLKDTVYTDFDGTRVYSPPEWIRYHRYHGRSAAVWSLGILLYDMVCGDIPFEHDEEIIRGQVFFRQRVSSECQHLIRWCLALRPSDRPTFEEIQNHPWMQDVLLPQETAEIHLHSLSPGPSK
Experimental: as §4, §5, §6

HEL92 cells = test: Growth inhibition, MTS assay, HEL92; type: cell-based, Human; conditions: MTS cell viability, read-out: HEL92 ED50
Text: as §1, §2, §3

CDK2/E = CDK2/E (Homo sapiens (Human), UniProt P24941); test: ADP-Glo Kinase Assay, CDK2/E; type: biochemical; conditions: 1 μM compound
Experimental: as §4, §5, §6

FLT3wt = FLT3wt (Homo sapiens (Human), UniProt P36888); test: ADP-Glo Kinase Assay, Flt3 wt; type: biochemical; conditions: 1 μM compound; for inhibition at 1 µM: read-out: Flt3wt % INH (1 μM)
Chain of FLT3wt (P36888 27-993): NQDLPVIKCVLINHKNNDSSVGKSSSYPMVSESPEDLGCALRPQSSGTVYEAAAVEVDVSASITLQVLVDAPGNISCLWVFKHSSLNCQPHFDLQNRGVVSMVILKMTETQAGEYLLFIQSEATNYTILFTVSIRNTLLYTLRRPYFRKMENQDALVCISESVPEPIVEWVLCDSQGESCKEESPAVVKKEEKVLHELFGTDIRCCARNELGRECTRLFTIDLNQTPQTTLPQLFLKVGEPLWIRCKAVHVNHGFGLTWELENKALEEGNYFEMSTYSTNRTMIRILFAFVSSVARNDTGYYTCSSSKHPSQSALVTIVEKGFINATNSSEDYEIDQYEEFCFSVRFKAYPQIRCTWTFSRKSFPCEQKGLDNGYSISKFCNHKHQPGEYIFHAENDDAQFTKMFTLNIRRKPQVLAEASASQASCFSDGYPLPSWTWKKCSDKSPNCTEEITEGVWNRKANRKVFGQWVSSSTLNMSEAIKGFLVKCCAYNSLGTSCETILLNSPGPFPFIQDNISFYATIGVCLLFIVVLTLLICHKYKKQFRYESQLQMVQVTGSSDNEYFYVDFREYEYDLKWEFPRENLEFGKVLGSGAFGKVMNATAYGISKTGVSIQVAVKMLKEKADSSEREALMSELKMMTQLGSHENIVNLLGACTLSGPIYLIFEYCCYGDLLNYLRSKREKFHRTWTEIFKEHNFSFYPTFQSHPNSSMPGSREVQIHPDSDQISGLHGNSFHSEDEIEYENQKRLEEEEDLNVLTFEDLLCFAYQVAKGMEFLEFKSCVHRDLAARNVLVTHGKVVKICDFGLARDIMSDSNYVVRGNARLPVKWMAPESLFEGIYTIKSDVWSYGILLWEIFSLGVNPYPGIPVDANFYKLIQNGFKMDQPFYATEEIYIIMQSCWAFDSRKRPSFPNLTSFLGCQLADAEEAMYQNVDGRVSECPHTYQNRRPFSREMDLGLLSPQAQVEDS
Experimental: as §4, §5, §6

Row | Compound | IC50 (MV4-11 cells; 72 hours) [µM] | IC50 (HepG2 cells; 72 hours) [µM] | DYRK1A % INH (1 μM) (DYRK1) [%] | Pim-1 % INH (1 μM) (Pim-1) [%] | inhibition at 1 µM (Pim-1) [%] | IC50 (HEL92 cells; 72 hours) [µM] | other results
1 | 5-bromo-6-methyl-4-nitro-2-(piperazin-1-yl)-1-(propan-2-yl)-1H-1,3-benzodiazole [Example 4B] | 1.2 | 1.8 | 51 | >95 | – | 4.1 | –
2 | CC(C)n1c(N[C@@H]2CCCNC2)nc2c([N+](=O)[O-])c(Br)c(Br)cc21 [Example 1CA] | 2.6 | 1.8 | 64 | 77 | – | 9.7 | –
3 | Cl.N[C@H]1CCN(c2nc3c([N+](=O)[O-])c(Br)c(Br)cc3n2CC2CC2)C1 [Example 1CK] | 2.0 | 5.3 | 23 | >95 | – | 6.9 | CDK2/E % INH (1 μM) (CDK2/E): 24%; Flt3wt % INH (1 μM) (FLT3wt): 30%
4 | CCCn1c(N2CC[C@@H](N)C2)nc2c([N+](=O)[O-])c(Br)c(Br)cc21 [Example 1CM] | 0.8 | 2.6 | 95 | >95 | – | 5.2 | Flt3wt % INH (1 μM) (FLT3wt): 26%
5 | CCn1c(N2CCNCC2)nc2c([N+](=O)[O-])c(Cl)c(Cl)cc21 [Example 1CN] | 3.3 | 4.5 | 27 | 76 | – | 9.4 | –
6 | CC(C)n1c(N2CC[C@@H](N)C2)nc2c([N+](=O)[O-])c(Br)c(F)cc21 [Example 1CY] | 2.1 | 2.8 | – | >95 | – | 8.9 | Flt3wt % INH (1 μM) (FLT3wt): <5%
7 | CCn1c(N2CCNCC2C)nc2c([N+](=O)[O-])c(Cl)c(Cl)cc21 (stereo not drawn) [Example 1DA] | 0.5 | 0.9 | 36 | 91 | – | 1.1 | –
8 | N[C@@H]1CCN(c2nc3c([N+](=O)[O-])c(Br)c(Br)cc3n2CCCO)C1 [Example 1DF] | 2.0 | 3.7 | 55 | >95 | – | – | Flt3wt % INH (1 μM) (FLT3wt): 18%
9 | O=[N+]([O-])c1c(Br)c(Br)cc2c1nc(N1CCNCC1)n2CCO [Example 1DJ] | – | – | – | – | 95 | – | IC50 (MV4-11 cells; Homo sapiens, MV4-11, 72 h): 0.6 µM; IC50 (HepG2 cells; Homo sapiens, HepG2, 72 h): 2.1 µM; inhibition at 1 µM (DYRK1): > 95%; IC50 (HEL92 cells; Homo sapiens, 72 h): 6.7 µM
10 | CCn1c(N2CCNC[C@@H]2C)nc2c(C#N)c(Br)c(Br)cc21 [Example 1DP] | – | – | – | – | > 95 | – | IC50 (MV4-11 cells; Homo sapiens, MV4-11, 72 h): 0.1 µM; IC50 (HepG2 cells; Homo sapiens, HepG2, 72 h): 0.2 µM; inhibition at 1 µM (DYRK1): > 95%; IC50 (HEL92 cells; Homo sapiens, 72 h): 0.5 µM; inhibition at 1 µM (FLT3wt): 57%
11 | CCn1c(N2CCC[C@H](NC)C2)nc2c([N+](=O)[O-])c(Br)c(Br)cc21 [Example 1DZ] | – | – | – | – | > 95 | – | –
12 | N#Cc1c(Br)c(Br)cc2c1nc(N1CC[C@@H](N)C1)n2[C@H]1CCNC1 [Example 8G, 2-[(3R)-3-aminopyrrolidin-1-yl]-5,6-dibromo-1-[(3S)-pyrrolidin-3-yl]-1H-1,3-benzodiazole-4-carbonitrile] | – | – | – | – | > 95 | – | –

More lines, main results first:

Row | IC50 (MV4-11 cells; 72 hours) [µM] | IC50 (HepG2 cells; 72 hours) [µM] | DYRK1A % INH (1 μM) (DYRK1) [%] | Pim-1 % INH (1 μM) (Pim-1) [%] | inhibition at 1 µM (Pim-1) [%] | Compound | IC50 (HEL92 cells; 72 hours) [µM] | other results
13 | 2.0 | 2.3 | – | – | – | CC(C)n1c(N[C@@H]2CCNC2)nc2c([N+](=O)[O-])c(Br)c(Br)cc21 [Example 1BF] | 7.6 | –
14 | 5.5 | 5.3 | – | – | – | O=[N+]([O-])c1c(Br)c(Br)cc2c1nc(N[C@@H]1CCNC1)n2CC1CC1 [Example 1CJ] | 5.5 | –
15 | 1.0 | 1.5 | 45 | 82 | – | CC(C)n1c(N2CCNCC2)nc2c([N+](=O)[O-])c(Br)c(F)cc21 [Example 1CL] | 2.4 | –
16 | 0.6 | 1.2 | 44 | >95 | – | CC(C)n1c(N2CCC(N)CC2)nc2c([N+](=O)[O-])c(Br)c(Br)cc21 [Example 1CP] | 5.8 | CDK2/E % INH (1 μM) (CDK2/E): 39%; Flt3wt % INH (1 μM) (FLT3wt): 32%
17 | 1.7 | – | 28 | >95 | – | CC(C)n1c(NC2CCC(N)CC2)nc2c([N+](=O)[O-])c(Br)c(Br)cc21 (stereo not drawn) [Example 1CQ] | 6.0 | IC50 (HepG2 cells; Homo sapiens, HepG2, 72 h): 2 µM; CDK2/E % INH (1 μM) (CDK2/E): 50%; Flt3wt % INH (1 μM) (FLT3wt): 17%
18 | 1.1 | 1.9 | 70 | >95 | – | CC(C)n1c(NC2CNC2)nc2c([N+](=O)[O-])c(Br)c(Br)cc21 [Example 1CR] | 8.7 | Flt3wt % INH (1 μM) (FLT3wt): 44%
19 | – | – | – | – | > 95 | CC(C)n1c(N2CC(N)C2)nc2c([N+](=O)[O-])c(Br)c(Br)cc21 [Example 1CX] | – | IC50 (MV4-11 cells; Homo sapiens, MV4-11, 72 h): 1.2 µM; IC50 (HepG2 cells; Homo sapiens, HepG2, 72 h): 3.1 µM; inhibition at 1 µM (DYRK1): 73%; IC50 (HEL92 cells; Homo sapiens, 72 h): 4.1 µM; inhibition at 1 µM (FLT3wt): 44%
20 | 0.2 | 0.4 | 92 | >95 | – | O=[N+]([O-])c1c(Br)c(Br)cc2c1nc(N1CCNCC1)n2C1CCC1 [Example 1DG] | 1.8 | –
21 | 5.5 | 5.7 | 25 | >95 | – | CC(C)n1c(NC2CCNCC2)nc2c([N+](=O)[O-])c(Br)c(Br)cc21 [Example 1DK] | 5.8 | –
22 | 0.5 | 0.9 | 38 | >95 | – | CC(C)n1c(N2CCNCC2CO)nc2c([N+](=O)[O-])c(Br)c(Br)cc21 (stereo not drawn) [Example 1DN] | 4.5 | Flt3wt % INH (1 μM) (FLT3wt): 55%
23 | 4.3 | 2.2 | – | 93 | – | CCn1c(NC2CCC(N)CC2)nc2c([N+](=O)[O-])c(Br)c(Br)cc21 (stereo not drawn) [Example 1DO] | – | –
24 | – | – | – | – | > 95 | CC[C@H]1CNCCN1c1nc2c([N+](=O)[O-])c(Br)c(Br)cc2n1C(C)C [Example 1EA] | – | –
25 | – | – | – | – | > 95 | COC1CN(c2nc3c([N+](=O)[O-])c(Br)c(Br)cc3n2C(C)C)CC1N (stereo not drawn) [Example 1EB] | – | –
26 | – | – | – | – | 81 | Cc1c(Br)cc2c(nc(N3CCNCC3)n2C(C)C)c1[N+](=O)[O-] [Example 4A, 5-methyl-6-bromo-4-nitro-2-(piperazin-1-yl)-1-(propan-2-yl)-1H-1,3-benzodiazole] | – | IC50 (MV4-11 cells; Homo sapiens, MV4-11, 72 h): 1 µM; IC50 (HEL92 cells; Homo sapiens, 72 h): 8.7 µM
27 | – | – | – | – | > 95 | CC(C)n1c(N2CCNC(CO)C2)nc2c([N+](=O)[O-])c(Br)c(Br)cc21 (stereo not drawn) [Example 22AD, {4-[5,6-dibromo-4-nitro-1-(propan-2-yl)-1H-1,3-benzodiazol-2-yl]piperazin-2-yl}methanol] | – | IC50 (MV4-11 cells; Homo sapiens, MV4-11, 72 h): 0.7 µM; IC50 (HepG2 cells; Homo sapiens, HepG2, 72 h): 1.2 µM; inhibition at 1 µM (DYRK1): 31%; IC50 (HEL92 cells; Homo sapiens, 72 h): 6.2 µM
28 | – | – | – | – | 56 | O=[N+]([O-])c1c(Br)c(Br)cc2c1nc(C1CCNCC1)n2CC1CCNCC1 [Example 27A, 5,6-dibromo-4-nitro-2-(piperidin-4-yl)-1-(piperidin-4-ylmethyl)-1H-1,3-benzodiazole] | – | –
